Test results from patent publication US7351800B2, “Stabilized albumin preparations” (Nipro Corporation, priority 2002, dated 2008).

Legend:
Format in all cases: physicochemical
HSA [1] = target: T1, HSA (Homo sapiens, UniProt P02768); test: Carbonyl content in HSA after oxidation with AAPH; conditions: oxidation with excess AAPH; compared with medical agent under test without addition
Description: An excess amount of an oxidizing agent, 2,2′-azobis-(2-amidinopropane) dihydrochloride (AAPH) was added to HSA to oxidize the HSA. After the oxidation for a predetermined time, the carbonyl content in HSA was determined.

HSA [2] = target: T1, HSA; test: Differential scanning calorimetry (DSC) of HSA solutions: thermal stabilization effect; conditions: 100-μM HSA, 500-μM agent
Description: Each of various medical agents was added to 100-μM HSA ( 1/15 mM phosphate buffer, pH 7.4) and then the following medical agents under test were prepared:
The stabilization effect was evaluated in terms of a thermodynamic viewpoint by calculating a thermal transition temperature (Tm) and a change ΔHcal in enthalpy of transition from a differential scanning calorimetry (DSC) measurement on those medical agents under test (1) to (4). If the thermal transition temperature (Tm) increases, from the thermodynamic viewpoint, it means an increase in stability of the medical agents under test. In addition, if the change ΔHcal in enthalpy of transition increases, it means an increase in stability of the medical agents transition under test.
Those values were analyzed by a DSC thermogram of the HSA solution. Differential scanning calorimetry (DSC method)
For the DSC, measurement was made using the MC-2 differential scanning calorimeter manufactured by MicroCal Co., Ltd. The measuring conditions are shown below.
Albumin content: 100 μM Solvent: 1/15 M phosphate buffer (pH 7.4)
Reversibility of thermal denaturation was confirmed by cooling the albumin solution after first measurement and then heating the albumin solution again. […]

HSA [3] = target: T1, HSA; test: Aggregate-inhibition effect under heat with medium-chain fatty acids other than sodium caprylate (electrophoresis); conditions: 5-fold concentration (120 μM) of fatty acid added to 24-μM HSA phosphate buffer (67 mM, pH 7.4)
Description: The measurement samples used were such that 5-fold concentrations (120 μM) of the respective fatty acids were each added to a 24-μM HSA phosphate buffer (67 mM, pH 7.4).

T1 sequence (P02768 25-609): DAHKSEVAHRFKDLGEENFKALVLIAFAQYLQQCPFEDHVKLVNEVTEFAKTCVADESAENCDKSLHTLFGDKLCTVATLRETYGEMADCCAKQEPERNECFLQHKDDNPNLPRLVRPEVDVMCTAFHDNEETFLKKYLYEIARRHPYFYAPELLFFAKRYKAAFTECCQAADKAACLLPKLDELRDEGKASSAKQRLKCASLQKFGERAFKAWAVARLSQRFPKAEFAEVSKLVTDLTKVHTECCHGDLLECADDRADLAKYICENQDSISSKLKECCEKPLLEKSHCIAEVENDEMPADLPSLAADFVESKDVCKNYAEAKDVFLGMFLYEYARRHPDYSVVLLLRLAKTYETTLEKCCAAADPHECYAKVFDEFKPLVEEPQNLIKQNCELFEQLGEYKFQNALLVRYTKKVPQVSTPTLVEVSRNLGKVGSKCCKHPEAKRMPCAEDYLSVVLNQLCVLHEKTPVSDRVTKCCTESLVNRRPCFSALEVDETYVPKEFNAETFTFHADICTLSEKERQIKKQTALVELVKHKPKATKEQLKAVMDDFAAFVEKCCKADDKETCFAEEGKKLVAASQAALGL

| Structure (SMILES) | carbonyl content in HSA (degree of oxidation) (HSA [1]) | change in Tm compared with HSA solution without added agent (in words) (HSA [2]) | change in ΔHcal compared with HSA solution without added agent (in words) (HSA [2]) | aggregate-inhibition effect under heat (HSA [3]) |
| --- | --- | --- | --- | --- |
| CSCC[C@H](NC(C)=O)C(=O)O [N-acetyl methionine] | significant decrease in carbonyl content | slight increase in Tm | increase in change ΔHcal in enthalpy transition | – |
| CCCCCC(=O)O [caproic acid] | – | – | – | slightly observed |
| CCCCCCC(=O)O [enanthic acid] | – | – | – | slightly observed |
